Values joined by “and” are separate entries in the source; they are usually repeats but may differ in a detail not shown here. Identical values can stand only once. “Also recorded” adds a separate entry of the source. Blank lines part the entries; values can stand above or below the molecule they belong to.
Assays:
[1] = Detection of marein and metabolites in rat plasma and urine after oral administration (UPLC-Q-TOF-MS/MS); type: in vivo, Sprague–Dawley rats; parameters: key to Location (matrix in which the metabolite was detected): P: plasma; U: urine; details: for Location (matrix in which the metabolite was detected): oral gavage of marein 200 mg/kg, plasma 0-1 h, urine 24 h
Method: (§1) Forty-eight healthy male Sprague–Dawley rats, SPF grade, weighing 250 ± 10 g, were purchased from Huafukang Laboratory Animal Technology Co. Ltd. (Beijing, China). Before use, all animals were reared for 5 days at a constant temperature of 25°C, a humidity of 40–60%, and a 12-hour light-dark cycle.
After adaptive feeding for 1 week, 24 SD rats were randomly divided into 4 groups: blank blood sample group, blank urine group, marein blood sample group, and marein urine group. The experimental animals were fasted 12 hours before the administration and free drinking water. Marein was dissolved with an appropriate amount of CMC-Na solution and was administered to SD rats by gavage at a dose of 200 mg/kg. The blank blood sample group was given an equal volume of CMC-Na solution.
(§2) Blood samples were collected from the fundus venous plexus of rats at 0, 0.08, 0.25, 0.5, and 1 h before and after gavage and injection. The blood samples were centrifuged (9,900 g, 10 min) to obtain plasma samples. All plasma samples were stored at −80°C until they were processed and analyzed.
(§3) Urine samples were collected for 24 hours by gavage and injection in a metabolic cage. All urine samples were stored at −80°C until they were processed and analyzed.
(§4) Take 100 μL of plasma from each group at the same time point and combine, add 900 μL of acetonitrile, vortex for 3 min, and centrifuge (4°C, 19,500 g) for 10 min. Take the supernatant, blow-dry, and concentrate and then add 900 μL of acetonitrile. Vortex for 3 minutes and then centrifuge (4°C, 19,500 g) for 10 minutes. Take the supernatant, dry it with nitrogen, and concentrate. Add 100 μL of 50% methanol to reconstitute the residue (methanol:water = 1:1), vortex, and centrifuge (4°C, 19,500 g) for 10 minutes. The supernatant was taken and analyzed by UPLC-Q-TOF-MS/MS. The blank plasma sample was processed in the same way.
(§5) Take 400 μL of urine, add 800 μL of methanol, vortex for 3 minutes, and centrifuge (4°C, 19,500 g) for 10 minutes. Take the supernatant, blow-dry, and concentrate and then add 800 μL of methanol to reconstitute, vortex for 3 minutes, and centrifuge (4°C, 19,500 g) for 10 minutes. In parallel, the supernatants were combined, dried, concentrated with nitrogen, and finally reconstituted with 100 μL 50% methanol (methanol:water = 1:1). The supernatant was analyzed by UPLC-Q-TOF-MS/MS. The blank urine sample was processed in the same way.
Used UPLC-Q-TOF-MS/MS 9030 system (Shimadzu, Japan), chromatography column: Shim-pack GISS C18 column (100 × 2.1 mm, 1.9 μm). […]
(§6) The data obtained by UPLC-Q-TOF-MS/MS were analyzed with Formula Predictor Server software. Target fragments are analyzed by ACD/Labs software accurate mass calculator (Shimadzu City, Japan).

[2] = Detection of marein and metabolites in rat plasma and urine after tail vein injection (UPLC-Q-TOF-MS/MS); type: in vivo, Sprague–Dawley rats; parameters: key to Location (matrix in which the metabolite was detected): P: plasma; U: urine; details: for Location (matrix in which the metabolite was detected): tail vein injection of marein 10 mg/kg, plasma 0-1 h, urine 24 h; for prototype components after tail vein injection: tail vein injection 10 mg/kg
Method: as §1
After adaptive feeding of 24 SD rats for 1 week, they were randomly divided into 4 groups, namely: blank blood sample group, blank urine group, marein blood sample group, and marein urine group. The experimental animals were fasted 12 hours before the administration and free drinking water. Marein was dissolved in appropriate amounts of saline and administered to SD rats via tail vein injection at a dose of 10 mg/kg. The blank group was injected with an equal volume of saline through the tail vein.
as §2, §3, §4, §5
(§7) Used UPLC-Q-TOF-MS/MS 9030 system (Shimadzu, Japan), chromatography column: Shim-pack GISS C18 column (100 × 2.1 mm, 1.9 μm). Mobile phase: A phase 0.1% formic acid water, B phase acetonitrile, gradient elution, elution gradient: 0∼1 min, 5∼10% B; 1∼2 min, 10% B; 2∼3 min, 10∼15% B; 3∼5 min, 15∼20% B; 5∼11 min, 20∼40% B; 11∼13 min, 40∼80% B; 13∼15 min, 80∼95% B; 15∼17 min, 95% B; 17∼20 min, 5% B. Flow rate: 0.3 mL/min; column temperature: 40°C.
(§8) MS operation conditions were as follows. The Q-TOF-MS spectrometer was configured with an electrospray ion source (ESI) operating in the negative and positive ion modes. Ion source interface voltage is −3.0 Kv. Nitrogen is used as the drying gas and the atomizing gas. The drying gas flow rate is set to 10 L/min, and the atomizing gas flow rate is set to 3.0 L/min. Air is used as heating gas, and the flow rate is set to 10 L/min; argon is used as collision gas; desolvent tube temperature is 250°C; heating block temperature is 400°C; and interface temperature is 300°C. Scan modes are MS Scan (m/z 100–500; 500–1,000) and MS/MS (m/z 50–500; 50–1,000). The collision energy (CE) is 35 ± 17 V.
as §6

[3] = Metabolic stability of marein in rat liver microsome incubation; type: in vitro ADME; details: for Area% (remaining percentage): 37°C, NADPH
Method: The total volume of the incubation system is 500 μL, including phosphate buffer (0.1 M, pH 7.4) 470 μL, and NADPH generating system 30 μL (Solution A: 25 μL and Solution B: 5 μL). The process is completed on an ice bath.
Marein blank control group: Take the above incubation system, add 5 μL of aqueous solution to an ice bath, incubate at 37°C for 5 min, and then add 15 μL of liver microsomes to the ice bath. After gently mixing the incubation system by hand, start the incubation at 37°C in a water bath. The incubation time is 0, 5, 15, 30, 45, 60, 90, and 120 min, and each sample is paralleled 3 times. When the reaction is complete, stop the reaction with the same volume of ice acetonitrile to completely precipitate the protein, centrifuge at 4,200 g for 10 min, aspirate the supernatant and centrifuge at 19,500 g for 10 min, and inject 2 μL for analysis.
Marein inactivated liver microsomes group: First inactivate liver microsomes, take the incubation system, add 5 μL of the marein reference substance stock solution on an ice bath, incubate at 37°C for 5 min, and then add 15 μL of inactivation to the ice bath. The following procedures were similar to the blank control group.
Marein liver microsomes group: Take the incubation system, add 5 μL of the marein reference substance stock solution to an ice bath, incubate at 37°C for 5 min, and then add 15 μL of liver microsomes to the ice bath. The following operation was the same as the blank control group.
as §7, §8
In the study of metabolism in vivo, the injection volume was 5 μL, while that in vitro metabolism was 2 μL.
In the liver microsomes study, the 0 min peak area of marein was regarded as 100%, and other time points were compared with the 0 min peak area to obtain the remaining percentage (area%). According to the natural logarithm of area% and incubation, the time slope k was obtained by linear regression. According to formula (1), the half-life t1/2/min of marein in liver microsomes could be obtained. According to formulas (2)–(5), the half-lives in liver microsomes, intrinsic clearance rate CLint, in vivo intrinsic clearance rate CL′int, liver clearance rate CLH, and liver extraction rate ER were calculated.(1) t1/2=−0.693/k, (2) CLint=0.693/t1/2incubationmL/microsomesmg, (3) CLint′=0.693/t1/2·incubationmL/microsomesmg·Liverg/BWkg·microsmesmg/Liverg, (4) CLH=Q·CLint′/Q+CLint′, (5) ER=CLH/Q.
The physical and chemical parameters: The liver tissue per kilogram of body weight for rat (Liver (g)/BW (kg)) was 40 g. Q is hepatic blood flow (66 ml/min/kg for rat), and CL′int is the intrinsic clearance. The microsomal protein per gram of liver tissue (microsomes (mg)/liver (g)) was 45 mg.

[4] = parameters: method as in PMID 27387397; details: healthy volunteers, tea of C. tinctoria; cited from earlier work

SMILES: O=C1C[C@@H](c2ccc(O)c(O)c2)Oc2c1ccc(O[C@@H]1O[C@H](CO)[C@@H](O)[C@H](O)[C@H]1O)c2O [M′1, flavanomarein]
prototype components after tail vein injection [2]: detected
Location (matrix in which the metabolite was detected) [2]: P, U

SMILES: O=C(/C=C/c1cccc(O)c1)c1ccc(O[C@@H]2O[C@H](CO)[C@@H](O)[C@H](O)[C@H]2O)c(O)c1O [M′11]
Location (matrix in which the metabolite was detected) [2]: U

SMILES: O=C(/C=C/c1ccc(O)cc1)c1ccc(O[C@@H]2O[C@H](CO)[C@@H](O)[C@H](O)[C@H]2O)c(O)c1O [M′12]
Location (matrix in which the metabolite was detected) [2]: U

SMILES: O=C(/C=C/c1ccc(O)c(O)c1)c1ccc(O[C@@H]2O[C@H](CO)[C@@H](O)[C@H](O)[C@H]2O)cc1O [M′13]
Location (matrix in which the metabolite was detected) [2]: P, U

SMILES: O=C(CCc1ccccc1)c1ccc(O[C@@H]2O[C@H](CO)[C@@H](O)[C@H](O)[C@H]2O)c(O)c1O [M′17]
Location (matrix in which the metabolite was detected) [2]: U

SMILES: O=C(/C=C/c1ccc(O)c(O)c1)c1ccc(O[C@@H]2O[C@H](CO)[C@@H](O)[C@H](O)[C@H]2O)c(O)c1O [marein]
prototype in plasma and urine after gavage ([1]; oral gavage 200 mg/kg, 200 mg/kg): no prototype components were found; also recorded: not detected in the original form
marein in plasma after intragastric administration ([1]; preliminary experiments of the team): no marein was found in plasma
CLint (intrinsic clearance rate) ([3]; SD rat liver microsomes): 0.0065 mL·(min·mg protein)^−1
t1/2 (in vitro metabolic half-life in liver microsomes) ([3]; SD rat liver microsomes): 2.961538 h
ER (liver extraction rate) ([3]; SD rat, ER=CLH/Q): 0.15 and 0.1506
CLH (liver clearance rate) ([3]; SD rat, Q 66 ml/min/kg): 9.9382 mL·min/kg
CL′int (in vivo intrinsic clearance rate) ([3]; SD rat, scaled with 40 g liver/kg, 45 mg microsomal protein/g liver): 11.7000 mL·min/kg
half-life ([3]; SD, rat, liver microsomes, pH 7.4, SD rat liver microsomes, read-out: t1/2 (in vitro metabolic half-life in liver microsomes)): 2.96 h
Ln (area%) ([3]; incubation 0 min): 4.61
Area% (remaining percentage) ([3]; incubation 0 min, 0 min regarded as 100%): 100%
Ln (area%) ([3]; incubation 5 min): 4.59
Area% (remaining percentage) ([3]; incubation 5 min): 98.69%
Ln (area%) ([3]; incubation 15 min): 4.46
Area% (remaining percentage) ([3]; incubation 15 min): 86.70%
Ln (area%) ([3]; incubation 30 min): 4.41
Area% (remaining percentage) ([3]; incubation 30 min): 82.34%
Ln (area%) ([3]; incubation 45 min): 4.36
Area% (remaining percentage) ([3]; incubation 45 min): 77.93%
Ln (area%) ([3]; incubation 60 min): 4.22
Area% (remaining percentage) ([3]; incubation 60 min): 68.01%
Ln (area%) ([3]; incubation 90 min): 4.21
Area% (remaining percentage) ([3]; incubation 90 min): 67.21%
Ln (area%) ([3]; incubation 120 min): 4.14
Area% (remaining percentage) ([3]; incubation 120 min): 62.76%
metabolic stability in liver microsomes ([3]; rat liver microsomes): good
marein in blood after drinking C. tinctoria tea [4]: no marein is detected
prototype components after tail vein injection [2]: detected
Location (matrix in which the metabolite was detected) [2]: P, U

Continued, values first:

Location (matrix in which the metabolite was detected) [1]: P
Location (matrix in which the metabolite was detected) ([2]; listed as M′10): P, U
SMILES: O=c1cc(-c2ccc(O)c(O)c2)oc2c(O)c(O[C@@H]3O[C@H](CO)[C@@H](O)[C@H](O)[C@H]3O)ccc12 [M13]

Location (matrix in which the metabolite was detected) [1]: P
Location (matrix in which the metabolite was detected) [2]: U
SMILES: O=C(/C=C/c1ccc(O)c(O)c1)c1ccc(O)c(O)c1O [M24, okanin]
